Values of other authors in patent US20130143845A1, “VITAMIN D COMPOUNDS AND METHODS FOR ENHANCING MUSCLE STRENGTH, AND PREVENTION AND TREATMENT OF DISEASE IN HUMAN BEINGS” (priority 2011, published 2013).
Where two headings read alike, the source gives them in different places.

Settings: in circulation

## C=C1/C(=C\C=C2/CCC[C@]3(C)[C@@H]([C@H](C)CCCC(C)(C)O)CC[C@@H]23)C[C@@H](O)C[C@@H]1O [1,25(OH)2D3, 1α,25-dihydroxyvitamin D3]
Prolonged by the invention (D3FACCPG), Lichtmann, personal communication
  half-life of 1,25(OH)2D3: approximately 12 hours
Without the invention (Holick, 2003)
  half-life of 1,25(OH)2D3: approximately 4 hours
